pEC50: −log10 of the molar value. Bridge positions count the residues as written; N and C are the ends. Square brackets hold non-standard residues; d marks the D form. Peptide text beside a SMILES is read from it. * marks the point of attachment. DO3A(CH2CH2SO2CH2CH2) = O=C(O)CN1CCN(CCS(=O)(=O)CC*)CCN(CC(=O)O)CCN(CC(=O)O)CC1; Ala(4-thiazolyl) = N[C@@H](Cc1cscn1)C(=O)O
System: cynomolgus monkey GCGR
Assay: functional cAMP assay in transfected HEK293 cells
Format: cell-based
Experimental: The same assay was performed for GLP-1R to assess cross-binding. Details of the assay procedure are described in Additional file 1 and have also been described elsewhere.
cAMP content of cells was determined using a kit from Cisbio Corp. (cat. no. 62AM4PEJ) based on HTRF (Homogenous Time Resolved Fluorescence). For preparation, cells were split into T175 culture flasks and grown overnight to near confluency in medium (DMEM / 10% FBS). Medium was then removed and cells washed with PBS lacking calcium and magnesium, followed by proteinase treatment with accutase (Sigma-Aldrich cat. no. A6964). Detached cells were washed and resuspended in assay buffer (1 x HBSS; 20 mM HEPES, 0.1% BSA, 2 mM IBMX) and cellular density determined. They were then diluted to 400000 cells/ml and 25 µl-aliquots dispensed into the wells of 96-well plates. For measurement, 25 µl of test compound in assay buffer was added to the wells, followed by incubation for 30 minutes at room temperature.

## CC[C@H](C)[C@H](NC(=O)[C@H](Cc1ccccc1)NC(=O)[C@H](CCC(=O)O)NC(=O)[C@@H]1CCCCNC(=O)CC[C@H](NC(=O)[C@H](CC(=O)O)NC(=O)[C@H](CC(C)C)NC(=O)[C@H](CCC(N)=O)NC(=O)[C@H](CCCCN)NC(=O)[C@H](CO)NC(=O)[C@H](Cc2ccc(O)cc2)NC(=O)[C@H](CC(=O)O)NC(=O)[C@H](CO)NC(=O)[C@@H](NC(=O)[C@H](Cc2ccccc2)NC(=O)[C@@H](NC(=O)CNC(=O)[C@H](CCC(N)=O)NC(=O)[C@@H](CO)NC(=O)[C@@H](N)Cc2cscn2)[C@@H](C)O)[C@@H](C)O)C(=O)N[C@@H](CCC(N)=O)C(=O)N[C@@H](CCCNC(=N)N)C(=O)N[C@@H](C)C(=O)N1)C(=O)N[C@@H](CCC(=O)O)C(=O)N[C@@H](Cc1c[nH]c2ccccc12)C(=O)N[C@@H](CC(C)C)C(=O)N[C@@H](CC(C)C)C(=O)N[C@@H](C)C(=O)N[C@H](C(=O)NCC(=O)N1CCC[C@H]1C(=O)N[C@@H](CCC(=O)O)C(=O)N[C@@H](CO)C(=O)NCC(=O)N[C@@H](C)C(=O)N1CCC[C@H]1C(=O)N1CCC[C@H]1C(=O)N1CCC[C@H]1C(=O)N[C@@H](CO)C(=O)N[C@@H](CSCCS(=O)(=O)CCN1CCN(CC(=O)O)CCN(CC(=O)O)CCN(CC(=O)O)CC1)C(N)=O)[C@@H](C)O [DO3A-S01-GCG] (H-[Ala(4-thiazolyl)][dS]QGTFTSDYSKQLDEQRAKEFIEWLLATGPESGAPPPSC(DO3A(CH2CH2SO2CH2CH2))-NH2; lactam 16-20)
  pEC50: 11.92

From PMC6377692 (EJNMMI Research, 2019)
